Measurements from the supplement of paper PMC10307832.

Assays:
Experiment in all cases: relative viability (nuclei count vs DMSO), 5 days (fraction); higher = more cells survive
Everolimus + Tozasertib = compound: CO[C@H]1C[C@@H]2CC[C@@H](C)[C@@](O)(O2)C(=O)C(=O)N2CCCC[C@H]2C(=O)O[C@H]([C@H](C)C[C@@H]2CC[C@@H](OCCO)[C@H](OC)C2)CC(=O)[C@H](C)/C=C(\C)[C@@H](O)[C@@H](OC)C(=O)[C@H](C)C[C@H](C)/C=C/C=C/C=C/1C [Everolimus] + Cc1cc(Nc2cc(N3CCN(C)CC3)nc(Sc3ccc(NC(=O)C4CC4)cc3)n2)n[nH]1 [Tozasertib] (partner 0.1 µM)
Method in brief: (§1)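 Lung cancer cell lines, seeded in 1536-well plates, were treated the following day by pin tool with a single drug or with five library-drug doses (not always all listed) in √10 steps on top of a fixed anchor-drug dose. Cells were fixed and nuclei stained in one step after 5 days, and nuclei were counted. Relative viability is the nuclei count for treated wells divided by that for vehicle wells, reported as medians of duplicate plates.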

Everolimus + Dasatinib = compound: CO[C@H]1C[C@@H]2CC[C@@H](C)[C@@](O)(O2)C(=O)C(=O)N2CCCC[C@H]2C(=O)O[C@H]([C@H](C)C[C@@H]2CC[C@@H](OCCO)[C@H](OC)C2)CC(=O)[C@H](C)/C=C(\C)[C@@H](O)[C@@H](OC)C(=O)[C@H](C)C[C@H](C)/C=C/C=C/C=C/1C [Everolimus] + Cc1nc(Nc2ncc(C(=O)Nc3c(C)cccc3Cl)s2)cc(N2CCN(CCO)CC2)n1 [Dasatinib] (partner 0.075 µM)
Method in brief: as §1

Everolimus + Alpelisib = compound: CO[C@H]1C[C@@H]2CC[C@@H](C)[C@@](O)(O2)C(=O)C(=O)N2CCCC[C@H]2C(=O)O[C@H]([C@H](C)C[C@@H]2CC[C@@H](OCCO)[C@H](OC)C2)CC(=O)[C@H](C)/C=C(\C)[C@@H](O)[C@@H](OC)C(=O)[C@H](C)C[C@H](C)/C=C/C=C/C=C/1C [Everolimus] + Cc1nc(NC(=O)N2CCC[C@H]2C(N)=O)sc1-c1ccnc(C(C)(C)C(F)(F)F)c1 [Alpelisib] (partner 2 µM)
Method in brief: as §1

Everolimus + Luminespib = compound: CO[C@H]1C[C@@H]2CC[C@@H](C)[C@@](O)(O2)C(=O)C(=O)N2CCCC[C@H]2C(=O)O[C@H]([C@H](C)C[C@@H]2CC[C@@H](OCCO)[C@H](OC)C2)CC(=O)[C@H](C)/C=C(\C)[C@@H](O)[C@@H](OC)C(=O)[C@H](C)C[C@H](C)/C=C/C=C/C=C/1C [Everolimus] + CCNC(=O)c1noc(-c2cc(C(C)C)c(O)cc2O)c1-c1ccc(CN2CCOCC2)cc1 [Luminespib] (partner 0.01 µM)
Method in brief: as §1

Cell Line	relative viability (Everolimus + Tozasertib; first compound 0.01 µM)	relative viability (Everolimus + Tozasertib; first compound 0.03162 µM)	relative viability (Everolimus + Tozasertib; first compound 0.1 µM)	relative viability (Everolimus + Tozasertib; first compound 0.3162 µM)	relative viability (Everolimus + Tozasertib; first compound 1 µM)	relative viability (Everolimus + Dasatinib; first compound 0.01 µM)	relative viability (Everolimus + Dasatinib; first compound 0.03162 µM)	relative viability (Everolimus + Dasatinib; first compound 0.1 µM)	relative viability (Everolimus + Dasatinib; first compound 0.3162 µM)	relative viability (Everolimus + Dasatinib; first compound 1 µM)	relative viability (Everolimus + Alpelisib; first compound 0.01 µM)	relative viability (Everolimus + Alpelisib; first compound 0.03162 µM)	relative viability (Everolimus + Alpelisib; first compound 0.1 µM)	relative viability (Everolimus + Alpelisib; first compound 0.3162 µM)	relative viability (Everolimus + Alpelisib; first compound 1 µM)	relative viability (Everolimus + Luminespib; first compound 0.01 µM)	relative viability (Everolimus + Luminespib; first compound 0.03162 µM)	relative viability (Everolimus + Luminespib; first compound 0.1 µM)	relative viability (Everolimus + Luminespib; first compound 0.3162 µM)	relative viability (Everolimus + Luminespib; first compound 1 µM)
201T	0.898	0.913	0.801	0.843	0.906	0.592	0.595	0.521	0.547	0.519	0.919	0.893	0.859	0.847	0.893	0.85	0.816	0.838	0.823	0.874
A549	–	–	–	–	–	–	–	–	–	–	0.328	0.292	0.272	0.323	0.204	–	–	–	–	–
A-427	0.17	0.164	0.203	0.184	0.19	0.527	0.526	0.397	0.462	0.489	0.795	0.709	0.754	0.675	0.787	0.584	0.611	0.651	0.779	0.729
ABC-1	0.183	0.172	0.163	0.193	0.208	–	0.393	0.413	0.455	0.513	0.682	0.617	0.636	0.678	0.539	–	0.342	0.316	0.371	0.355
BEN	0.462	0.452	0.491	0.415	0.354	0.221	0.209	0.217	0.236	0.211	0.545	0.399	0.319	0.436	0.344	0.191	0.152	0.201	0.161	0.168
CAL-12T	0.173	0.217	0.212	0.167	0.182	0.274	0.261	0.194	0.289	0.189	0.378	0.464	0.266	0.351	0.46	0.146	0.138	0.173	0.159	0.212
COR-L23	0.334	0.324	0.288	0.255	0.233	0.429	0.498	0.432	0.497	0.485	0.492	0.476	0.482	0.505	0.567	0.417	0.377	0.461	0.431	0.268
COR-L 105	0.312	0.305	0.332	0.346	0.292	0.25	0.262	0.211	0.253	0.233	0.585	0.526	0.489	0.567	0.518	0.405	0.392	0.333	0.313	0.365
Calu-6	–	–	–	–	–	–	–	–	–	–	0.65	0.604	0.593	0.608	0.614	–	–	–	–	–
ChaGo-K-1	0.226	0.208	0.215	0.215	0.238	0.523	0.565	0.532	0.521	0.61	–	–	–	–	–	0.455	0.396	0.54	0.432	0.399
EBC-1	–	–	–	–	–	–	–	–	–	–	0.278	0.348	0.284	0.33	0.279	–	–	–	–	–
EKVX	0.327	0.333	0.214	0.257	0.259	0.539	0.435	0.419	0.366	0.287	0.479	0.48	0.436	0.61	0.449	0.623	0.475	0.336	0.447	0.425
EMC-BAC-2	0.289	0.296	0.244	0.258	0.266	0.24	0.242	0.189	0.219	0.278	0.499	0.46	0.388	0.461	0.481	0.789	0.714	0.689	0.735	0.613
EPLC-272H	0.19	0.286	0.176	0.242	0.216	0.235	0.266	0.213	0.227	0.276	0.797	0.577	0.592	0.586	0.638	0.162	0.176	0.188	0.203	0.263
H3255	0.597	0.55	0.412	0.462	0.402	0.35	0.266	0.332	0.239	0.335	0.526	0.412	0.48	0.441	0.334	0.594	0.584	0.479	0.504	0.498
HARA	0.226	0.126	–	0.116	0.293	0.199	0.244	–	0.209	0.289	0.564	0.457	0.499	0.507	0.412	0.748	0.768	–	0.407	0.203
HCC-15	0.483	0.457	0.437	0.365	0.272	0.667	0.546	0.417	0.561	0.489	0.763	0.678	0.685	0.608	0.605	0.45	0.449	0.368	0.387	0.191

Cell Line	relative viability (Everolimus + Tozasertib; first compound 0.01 µM)	relative viability (Everolimus + Tozasertib; first compound 0.03162 µM)	relative viability (Everolimus + Tozasertib; first compound 0.1 µM)	relative viability (Everolimus + Tozasertib; first compound 0.3162 µM)	relative viability (Everolimus + Tozasertib; first compound 1 µM)	relative viability (Everolimus + Dasatinib; first compound 0.01 µM)	relative viability (Everolimus + Dasatinib; first compound 0.03162 µM)	relative viability (Everolimus + Dasatinib; first compound 0.1 µM)	relative viability (Everolimus + Dasatinib; first compound 0.3162 µM)	relative viability (Everolimus + Dasatinib; first compound 1 µM)	relative viability (Everolimus + Alpelisib; first compound 0.01 µM)	relative viability (Everolimus + Alpelisib; first compound 0.03162 µM)	relative viability (Everolimus + Alpelisib; first compound 0.1 µM)	relative viability (Everolimus + Alpelisib; first compound 0.3162 µM)	relative viability (Everolimus + Alpelisib; first compound 1 µM)	relative viability (Everolimus + Luminespib; first compound 0.01 µM)	relative viability (Everolimus + Luminespib; first compound 0.03162 µM)	relative viability (Everolimus + Luminespib; first compound 0.1 µM)	relative viability (Everolimus + Luminespib; first compound 0.3162 µM)	relative viability (Everolimus + Luminespib; first compound 1 µM)
HCC-44	1.07	1.07	0.94	0.97	1.19	–	–	–	–	–	0.616	0.597	0.44	0.511	0.44	1.02	0.851	1.05	0.938	1.56
HCC-78	0.361	0.428	0.406	0.426	0.454	0.328	0.291	0.248	0.263	0.343	0.244	0.244	0.213	0.234	0.228	–	–	–	–	–
HCC-366	0.097	0.102	0.347	0.0539	0.0447	0.459	0.593	0.477	0.46	0.354	0.334	0.231	0.251	0.25	0.267	–	–	–	–	–
HCC-827	0.451	0.417	0.404	0.378	0.366	0.221	0.331	0.2	0.168	0.17	0.925	0.736	0.656	0.682	0.637	0.346	0.33	0.204	0.203	0.199
HOP-62	0.441	0.362	0.363	0.41	0.264	0.394	0.424	0.352	0.382	0.387	0.683	0.551	0.517	0.518	0.429	0.918	0.853	0.782	0.919	0.926
IA-LM	–	–	–	–	–	–	–	–	–	–	0.185	0.334	0.27	0.149	0.288	–	–	–	–	–
LC-2-ad	0.434	0.384	0.385	0.423	0.343	0.544	0.51	0.515	0.427	0.505	0.752	0.885	0.754	0.737	0.818	1.17	1.05	0.832	1.08	0.892
LCLC-97TM1	0.189	0.216	0.181	0.196	0.171	0.929	0.851	0.932	0.836	0.917	0.204	0.178	0.164	0.167	0.139	0.76	0.743	0.549	0.581	0.769
NCI-H522	0.584	0.432	0.409	0.505	0.458	0.776	0.624	0.629	0.71	0.724	–	–	–	–	–	0.841	0.631	0.767	0.738	0.811
NCI-H1299	–	–	–	–	–	–	–	–	–	–	1.04	1.09	1.01	1.06	1.06	–	–	–	–	–
NCI-H1563	–	–	–	–	–	0.434	0.419	0.462	0.464	0.437	0.715	0.717	0.662	0.641	0.685	0.54	0.479	0.548	0.501	0.496
NCI-H1648	0.41	0.776	0.585	0.549	0.388	–	–	–	–	–	–	–	–	–	–	–	–	–	–	–
NCI-H1650	0.46	0.424	0.416	0.445	0.482	0.288	0.225	0.263	0.315	0.295	–	–	–	–	–	0.167	0.207	0.184	0.208	0.19
NCI-H1703	–	–	–	–	–	–	–	–	–	–	0.213	0.22	0.29	0.239	0.338	–	–	–	–	–
NCI-H1792	–	–	–	–	–	0.732	0.435	0.562	0.518	0.484	0.618	0.5	0.312	0.222	0.212	0.295	0.24	0.21	0.229	0.217
NCI-H2342	0.557	0.4	0.435	0.352	0.407	0.274	0.323	0.277	0.262	0.319	–	–	–	–	–	0.668	0.496	0.426	0.46	0.553
SW 900	0.332	0.462	0.442	0.404	0.448	0.571	0.345	0.34	0.45	0.335	–	–	–	–	–	0.173	0.174	0.165	0.154	0.169
